Measured values reported in US9168266B2, “Hybrid diazeniumdiolated compounds, pharmaceutical compositions, and method of treating cancer” (The United States of America, as represented by the …, priority 2011, dated 2015).
pIC50: −log10 of the molar value. Like-named read-outs stand apart in the source and are kept apart here.

Legend:
H460 = assay: MTT cell proliferation assay; type: cell-based, human
Method: (§1) Cell lines were obtained from the American Type Culture Collection (Manassas, Va.) and cultured according to the supplier's protocol. For proliferation assays cells were seeded at 1×10^4 per well (H1693, H322M, H1703, H1944, H1355, H2122, H441, H1568) or 5×10^3 per well (H460, H1792, A549, H2023, H2030, H23) in 96-well plates and allowed to adhere for 24 h. Compounds were prepared as 10 mM stock solutions in DMSO. Increasing drug concentrations in 10 μl of PBS were added to 100 μl of the culture medium for 72 h. MTT assay (Promega, Madison, Wis.) was performed according to the manufacturer's protocol. Each concentration was represented in six repeats, and the screening was performed as at least two independent experiments. IC50 values were calculated by using Sigma Plot software (Systat Software, Inc., San Jose, Calif.).

[1] = tested on: H1703 lung adenocarcinoma cells; assay: Intracellular NO release, DAF-FM diacetate fluorescence; type: cell-based; settings: 10 μM; for intracellular NO release (DAF fluorescence): 30 min, H1703 cells; for cell permeability: inferred from intracellular NO release
Method: The intracellular level of nitric oxide after treatment with the compounds JS-59-183 or JS-60-178 was quantified by using the NO-sensitive fluorophore 4-amino-5-methylamino-2,7 difluorofluorescein (DAF-FM) diacetate (Invitrogen, Carlsbad, Calif.). Cells growing on six-well plates were loaded with 2.5 μM DAF-FM diacetate in HBSS at 37° C. and 5% CO2. After 30 min of incubation, the cells were rinsed with HBSS to remove excess probe, and compounds in fresh HBSS was added to the cells at 10 μM final concentration. After 30 min incubation, the fluorescence of the benzotriazole derivative formed on DAF-FM's reaction with aerobic NO was analyzed by using a PerkinElmer Life and Analytical Sciences LS50B luminescence spectrometer with the excitation source at 495 nm and emission at 515 nm. All experiments were performed at least three times, each time at least in triplicate.

PARP enzyme = target: T1, PARP enzyme (Homo sapiens, UniProt P09874); assay: PARP enzyme inhibition, HT Universal Colorimetric PARP assay kit with GSH; type: biochemical; settings: GSH 1 mM added to activate prodrugs; absorbance 450 nm
T1 construct: purchased Trevigen, Gaithersburg, Md
Method: PARP enzyme inhibition was measured using HT Universal Colorimetric 96-well PARP assay kit (Trevigen, Gaithersburg, Md.), according to manufacturer's protocol with small modifications. GSH (1 mM final concentration) was added to the wells containing inhibitors, to allow activation of the prodrugs. The absorbance at 450 nm was measured.

[2] = tested on: H1703 lung adenocarcinoma cells; assay: Intracellular ROS/RNS level, DCF fluorescence; type: cell-based; settings: 10 μM, 60 min, versus DMSO
Method: Intracellular level of reactive oxygen/nitrogen species was quantified by the oxidation of the ROS/RNS-sensitive fluorophore 5-(and-6)-chloromethyl-2′,7′-dichlorodihydrofluorescein diacetate (Invitrogen, Carlsbad, Calif.). Cells growing on six-well plates (6×10^5/well) were loaded with 5 μM 5-(and-6)-chloromethyl-2′,7′-dichlorodihydrofluorescein diacetate in Hanks' balanced salt solution (HBSS) at 37° C. and 5% CO2. After 30 min of incubation, HBSS containing the probe was removed, cells were rinsed with HBSS, and 3 ml of fresh HBSS was added to each well followed by the addition of compounds (10 μM) or DMSO as a control. After 60 min, the cells were collected by scraping in HBSS, and 2′,7′-dichlorofluorescein (DCF) fluorescence was measured by using a PerkinElmer Life and Analytical Sciences (Waltham, Mass.) LS50B luminescence spectrometer with the excitation source at 488 nm and emission at 530 nm.

A549 = assay: MTT cell proliferation assay; type: cell-based; settings: A549, 72 h
Method: as §1

H1703 = assay: MTT cell proliferation assay; type: cell-based
Method: as §1

H2122 = assay: MTT cell proliferation assay; type: cell-based
Method: as §1

H2023 = assay: MTT cell proliferation assay; type: cell-based
Method: as §1

H1355 = assay: MTT cell proliferation assay; type: cell-based
Method: as §1

H1792 = assay: MTT cell proliferation assay; type: cell-based
Method: as §1

H2030 = assay: MTT cell proliferation assay; type: cell-based
Method: as §1

H322M = assay: MTT cell proliferation assay; type: cell-based; settings: 72 h
Method: as §1

H1693 = assay: MTT cell proliferation assay; type: cell-based
Method: as §1

H1944 = assay: MTT cell proliferation assay; type: cell-based
Method: as §1

H441 = assay: MTT cell proliferation assay; type: cell-based
Method: as §1

H23 = assay: MTT cell proliferation assay; type: cell-based
Method: as §1

H1568 = assay: MTT cell proliferation assay; type: cell-based
Method: as §1

NSCLC cells [3] = assay: Western blot for cleaved caspase 7 (apoptosis); type: cell-based; settings: 10 μm, DMSO control
Method: (§2) The alkaline comet assay was performed as described (Romanowska et al., Free Radical Biol. Med., 43: 1145-1155 (2007)). Western blot analysis was performed as described previously (Maciag et al., J. Pharmacol. Exp. Ther., 336: 313-320 (2011)). Primary antibodies for cleaved caspase 7 (Cell Signaling Technology, Danvers, Mass.) were used.

NSCLC cells [4] = assay: Alkaline comet assay (DNA strand breaks); type: cell-based
Method: as §2

NSCLC cell lines = assay: MTT cell proliferation assay, panel summary; type: cell-based; settings: range over the NSCLC cell lines, 72 h, read-out: IC50 for growth inhibition across NSCLC cell lines
Method: as §1

T1 sequence (P09874 whole entry): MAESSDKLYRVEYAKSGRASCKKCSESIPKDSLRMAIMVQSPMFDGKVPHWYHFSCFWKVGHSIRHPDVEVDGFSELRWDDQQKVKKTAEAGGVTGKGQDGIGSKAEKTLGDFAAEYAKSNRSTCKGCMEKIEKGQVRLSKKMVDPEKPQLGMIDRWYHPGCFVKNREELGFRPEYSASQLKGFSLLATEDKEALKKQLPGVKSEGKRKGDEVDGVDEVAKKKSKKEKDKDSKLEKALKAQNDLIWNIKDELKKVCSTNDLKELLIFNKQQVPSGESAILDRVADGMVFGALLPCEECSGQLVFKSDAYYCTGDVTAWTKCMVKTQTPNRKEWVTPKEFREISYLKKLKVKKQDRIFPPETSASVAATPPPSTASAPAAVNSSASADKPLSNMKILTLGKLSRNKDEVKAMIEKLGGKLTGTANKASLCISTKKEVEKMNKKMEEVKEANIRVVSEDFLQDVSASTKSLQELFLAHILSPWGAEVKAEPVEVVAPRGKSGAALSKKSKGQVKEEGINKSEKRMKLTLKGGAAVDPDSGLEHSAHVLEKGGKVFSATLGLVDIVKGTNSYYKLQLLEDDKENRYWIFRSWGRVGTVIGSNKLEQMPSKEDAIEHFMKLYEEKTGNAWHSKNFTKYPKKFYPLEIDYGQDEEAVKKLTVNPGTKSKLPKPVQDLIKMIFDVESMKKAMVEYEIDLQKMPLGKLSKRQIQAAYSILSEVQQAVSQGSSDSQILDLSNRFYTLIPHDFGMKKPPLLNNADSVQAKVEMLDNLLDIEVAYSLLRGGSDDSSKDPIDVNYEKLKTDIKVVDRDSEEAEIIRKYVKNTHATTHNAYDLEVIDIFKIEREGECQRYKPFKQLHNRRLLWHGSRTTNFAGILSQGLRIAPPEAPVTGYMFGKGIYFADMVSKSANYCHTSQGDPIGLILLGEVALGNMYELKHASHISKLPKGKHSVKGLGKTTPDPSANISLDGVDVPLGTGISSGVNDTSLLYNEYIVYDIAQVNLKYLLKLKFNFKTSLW

SMILES | TGI (total growth inhibition) (H460; H460, 72 h) [µM] | intracellular NO release (DAF fluorescence) [1] | cell permeability [1] | pIC50 (PARP enzyme) | ROS generation (DCF fluorescence) [2] | TGI (total growth inhibition) (A549) [µM] | TGI (total growth inhibition) (H1703; H1703, 72 h) [µM] | TGI (total growth inhibition) (H2122; H2122, 72 h) [µM] | TGI (total growth inhibition) (H2023; H2023, 72 h, MTT) [µM] | TGI (total growth inhibition) (H1355; H1355, 72 h) [µM] | TGI (total growth inhibition) (H1792; H1792, 72 h) [µM] | TGI (total growth inhibition) (H2030; H2030, 72 h) [µM] | TGI (total growth inhibition) (H322M; H322M, MTT) [µM] | TGI (total growth inhibition) (H1693; H1693, 72 h) [µM] | TGI (total growth inhibition) (H1944; H1944, 72 h) [µM] | TGI (total growth inhibition) (H441; H441, 72 h) [µM] | TGI (total growth inhibition) (H23; H23, 72 h, MTT) [µM] | TGI (total growth inhibition) (H1568; H1568, 72 h) [µM] | apoptotic signal (cleaved caspase 7) (NSCLC cells [3]) | other results
O=C(c1cccc(Cc2n[nH]c(=O)c3ccccc23)c1)N1CCN([N+]([O-])=NOc2ccc([N+](=O)[O-])cc2[N+](=O)[O-])CC1 [JS-59-183, 2,4-dinitrophenyl 4-[5-[(4-oxo-3H-phthalazin-1-yl)methyl]-benzoyl]piperazine-1-yl-1-ium-1,2-diolate] | 24.8 | decompose within the cell releasing NO | cell permeable | 8.08 | increase in ROS generation | 26.0 | 11.2 | 25.0 | 32.5 | 23.0 | 20.0 | 25.0 | 14.0 | 7.3 | 28.0 | 11.7 | 15.2 | 9.0 | strong apoptotic signal | pIC50 (H460; H460, 72 h): 4.86; pIC50 (A549): 4.77; pIC50 (H1703; H1703, 72 h): 5.17; pIC50 (H2122; H2122, 72 h): 4.95; pIC50 (H2023; H2023, 72 h, MTT, read-out: IC50): 4.71; pIC50 (H1355; H1355, 72 h): 4.94; pIC50 (H1792; H1792, 72 h): 4.85; pIC50 (H2030; H2030, 72 h): 4.86; pIC50 (H322M; H322M, MTT, read-out: IC50): 5.05; pIC50 (H1693; H1693, 72 h): 5.28; pIC50 (H1944; H1944, 72 h): 4.85; pIC50 (H441; H441, 72 h): 5.09; pIC50 (H23; H23, 72 h, MTT, read-out: IC50): 5.12; pIC50 (H1568; H1568, 72 h): 5.19
O=C(c1cc(Cc2n[nH]c(=O)c3ccccc23)ccc1F)N1CCN([N+]([O-])=NOc2ccc([N+](=O)[O-])cc2[N+](=O)[O-])CC1 [JS-60-178, 2,4-dinitrophenyl 4-[2-fluoro-5-[(4-oxo-3H-phthalazin-1-yl)methyl]-benzoyl]piperazine-1-yl-1-ium-1,2-diolate] | 24.0 | decompose within the cell releasing NO | cell permeable | 8.54 | increase in ROS generation | 22.0 | 6.7 | 11.0 | 25.0 | 15.0 | 19.0 | 15.2 | 11.6 | 6.6 | 19.0 | 6.2 | 12.3 | 4.0 | strong apoptotic signal | comet signal compared with Olaparib (20 μm) (NSCLC cells [4]; 5 μM, 24 hours): stronger comet signal; DNA strand break damage by Comet assay (NSCLC cells [4]; 24 hours treatment): significant DNA strand break damage; pIC50 (NSCLC cell lines): 4.70 to 5.52; pIC50 (H460; Homo sapiens, NCI-H460, H460, 72 h): 4.79; pIC50 (A549; Homo sapiens): 4.87; pIC50 (H1703; Homo sapiens, NCI-H1703, H1703, 72 h): 5.37; pIC50 (H2122; Homo sapiens, NCI-H2122, H2122, 72 h): 5.12; pIC50 (H2023; NCI-H2023, H2023, 72 h, MTT, read-out: IC50): 4.82; pIC50 (H1355; Homo sapiens, NCI-H1355, H1355, 72 h): 5.09; pIC50 (H1792; Homo sapiens, NCI-H1792, H1792, 72 h): 4.90; pIC50 (H2030; Homo sapiens, NCI-H2030, H2030, 72 h): 5.04; pIC50 (H322M; Homo sapiens, NCI-H322M, H322M, MTT, read-out: IC50): 5.10; pIC50 (H1693; Homo sapiens, NCI-H1693, H1693, 72 h): 5.27; pIC50 (H1944; Homo sapiens, NCI-H1944, H1944, 72 h): 4.98; pIC50 (H441; Homo sapiens, NCI-H441, H441, 72 h): 5.35; pIC50 (H23; Homo sapiens, NCI-H23, H23, 72 h, MTT, read-out: IC50): 5.08; pIC50 (H1568; NCI-H1568, H1568, 72 h): 5.52
O=C(c1cc(Cc2n[nH]c(=O)c3ccccc23)ccc1F)N1CCN(C(=O)C2CC2)CC1 [Olaparib, olaparib, reference compound] | 37 |  |  |  |  | 100 |  | 140 | 85 | 113 | 38 | 117 | 360 | 65 | 88 | 84 | 70 | 113 | did not trigger apoptosis | pIC50 (H2023; NCI-H2023, 72 h): 4.70; pIC50 (H322M; Homo sapiens, NCI-H322M): 4.30; pIC50 (H23; Homo sapiens, NCI-H23, 72 h): 5.00
